Reference: patent US20170190671A1, “BIS(ARYL)CATECHOL DERIVATIVES AS HERBICIDES” (E I DU PONT DE NEMOURS AND COMPANY, priority 2014, published 2017)

Key:
Format in all cases: in vivo
[1] = system: barnyardgrass (Echinochloa crus-galli); test: Test B flooded paddy; settings: 250 g ai/ha, Flood, 13 to 15 days, scale 0 (no effect) to 100 (complete control); for pest or weed control at 250 g/ha: Echinochloa crus-galli, 336 h, read-out: Plant response rating, Barnyardgrass
How it was run: (§1)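 Ratings were visual and made relative to untreated controls after 13 to 15 greenhouse days.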

[2] = system: ducksalad (Heteranthera limosa); test: Test B flooded paddy; settings: 250 g ai/ha, Flood, 13 to 15 days, scale 0 (no effect) to 100 (complete control); for pest or weed control at 250 g/ha: Heteranthera limosa, 336 h, read-out: Plant response rating, Ducksalad
How it was run: as §1

[3] = system: rice (Oryza sativa); test: Test B flooded paddy; settings: 250 g ai/ha, Flood, 13 to 15 days, scale 0 (no effect) to 100 (complete control); for plant injury at 250 g/ha: Oryza sativa, 336 h, read-out: Plant response rating, Rice
How it was run: as §1

[4] = system: sedge, umbrella (small-flower umbrella sedge, Cyperus difformis); test: Test B flooded paddy; settings: 250 g ai/ha, Flood, 13 to 15 days, scale 0 (no effect) to 100 (complete control); for pest or weed control at 250 g/ha: Cyperus difformis, 336 h, read-out: Plant response rating, Sedge, Umbrella
How it was run: as §1

[5] = system: Italian ryegrass (Lolium multiflorum); test: Test A preemergence
How it was run: (§2)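 Visual injury scored 0–100 (100 = complete control) against untreated controls about 10 days after treatment in a greenhouse. Test chemicals, formulated with surfactant in non-phytotoxic solvent, were sprayed on soil preemergence or on 2-10 cm, one- to two-leaf plants postemergence.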

[6] = system: barnyardgrass (Echinochloa crus-galli); test: Test A preemergence; settings: for pest or weed control at 125 g/ha: 125 g ai/ha
How it was run: as §2

[7] = system: giant foxtail (Setaria faberii); test: Test A preemergence; settings: for pest or weed control at 125 g/ha: 125 g ai/ha
How it was run: as §2

[8] = system: kochia (Kochia scoparia); test: Test A preemergence
How it was run: as §2

[9] = system: pigweed (Amaranthus retroflexus); test: Test A preemergence; settings: for pest or weed control at 125 g/ha: 125 g ai/ha
How it was run: as §2

[10] = system: ragweed (common ragweed, Ambrosia elatior); test: Test A preemergence
How it was run: as §2

[11] = system: Italian ryegrass (Lolium multiflorum); test: Test A postemergence; settings: 0 to 100 scale
How it was run: as §2

[12] = system: barnyardgrass (Echinochloa crus-galli); test: Test A postemergence; settings: 0 to 100 scale; for pest or weed control at 125 g/ha: 125 g ai/ha
How it was run: as §2

[13] = system: blackgrass (Alopecurus myosuroides); test: Test A postemergence; settings: 0 to 100 scale
How it was run: as §2

[14] = system: corn (Zea mays); test: Test A postemergence; settings: 0 to 100 scale; for Corn plant response rating (crop injury, 0 = no effect, 100 = complete kill) at 125 g/ha: 125 g ai/ha
How it was run: as §2

[15] = system: galium (catchweed bedstraw, Galium aparine); test: Test A postemergence; settings: 0 to 100 scale
How it was run: as §2

[16] = system: giant foxtail (Setaria faberii); test: Test A postemergence; settings: 0 to 100 scale; for pest or weed control at 125 g/ha: 125 g ai/ha
How it was run: as §2

[17] = system: kochia (Kochia scoparia); test: Test A postemergence; settings: 0 to 100 scale
How it was run: as §2

[18] = system: pigweed (Amaranthus retroflexus); test: Test A postemergence; settings: 0 to 100 scale; for pest or weed control at 125 g/ha: 125 g ai/ha
How it was run: as §2

[19] = system: ragweed (common ragweed, Ambrosia elatior); test: Test A postemergence; settings: 0 to 100 scale
How it was run: as §2

[20] = system: wheat (Triticum aestivum); test: Test A postemergence; settings: 0 to 100 scale; for plant injury at 125 g/ha: 125 g ai/ha
How it was run: as §2

[21] = Echinochloa crus-galli, pre-emergence, 240 h, 0 to 100 scale, read-out: Plant response rating, Barnyardgrass
[22] = Echinochloa crus-galli, post-emergence, 240 h, read-out: Plant response rating, Barnyardgrass
[23] = Zea mays, post-emergence, 240 h
[24] = Setaria faberi, post-emergence, 240 h, read-out: Plant response rating, Foxtail, Giant
[25] = Amaranthus retroflexus, post-emergence, 240 h, read-out: Plant response rating, Pigweed
[26] = Triticum aestivum, post-emergence, 240 h, read-out: Plant response rating, Wheat

## FC(F)(F)c1cnc(Oc2c(Br)cccc2Oc2ncc(Cl)cn2)nc1 [Compound 24]
[1]
  Plant response rating, Barnyardgrass: 50
[2]
  Plant response rating, Ducksalad: 100
[3]
  Plant response rating, Rice: 90
[4]
  Plant response rating, Sedge, Umbrella: 100
[5]; 1000 g ai/ha, 0 to 100 scale
  Plant response rating, Ryegrass, Italian: 80
[6]; 1000 g ai/ha, 0 to 100 scale
  Plant response rating, Barnyardgrass: 100
[7]; 1000 g ai/ha, 0 to 100 scale
  Plant response rating, Foxtail, Giant: 100
[8]; 1000 g ai/ha, 0 to 100 scale
  Plant response rating, Kochia: 90
[9]; 1000 g ai/ha, 0 to 100 scale
  Plant response rating, Pigweed: 100
[10]; 1000 g ai/ha, 0 to 100 scale
  Plant response rating, Ragweed: 70
[11]; 1000 g ai/ha
  Plant response rating, Ryegrass, Italian: 80
[12]; 1000 g ai/ha, 0 no effect, 100 complete control
  Plant response rating, Barnyardgrass: 90
[13]; 1000 g ai/ha
  Plant response rating, Blackgrass: 70
[14]; 1000 g ai/ha
  Plant response rating, Corn: 50
[15]; 1000 g ai/ha
  Plant response rating, Galium: 90
[16]; 1000 g ai/ha
  Plant response rating, Foxtail, Giant: 90
[17]; 1000 g ai/ha
  Plant response rating, Kochia: 90
[18]; 1000 g ai/ha
  Plant response rating, Pigweed: 100
[19]; 1000 g ai/ha
  Plant response rating, Ragweed: 60
[20]; 1000 g ai/ha
  Plant response rating, Wheat: 50

## N#Cc1cccc(Oc2ncc(Br)cn2)c1Oc1ncc(Cl)cn1 [Compound 5, 3-[(5-bromo-2-pyrimidinyl)oxy]-2-[(5-chloro-2-pyrimidinyl)oxy]benzonitrile]
[1]
  pest or weed control at 250 g/ha: 35%
[2]
  pest or weed control at 250 g/ha: 100%
[3]
  plant injury at 250 g/ha: 0%
[4]
  pest or weed control at 250 g/ha: 75%
[5]; Lolium multiflorum, pre-emergence, 240 h, 31 g ai/ha, 0 to 100 scale (0 no effect, 100 complete control), read-out: Ryegrass, Italian plant response rating
  pest or weed control at 31 g/ha: 0%
[5]; Lolium multiflorum, pre-emergence, 240 h, 125 g ai/ha, 0 to 100 scale, read-out: Plant response rating, Ryegrass, Italian
  pest or weed control at 125 g/ha: 60%
[6]; Echinochloa crus-galli, pre-emergence, 240 h, 31 g ai/ha, 0 to 100 scale (0 no effect, 100 complete control), read-out: Barnyardgrass plant response rating
  pest or weed control at 31 g/ha: 20%
[6]; [21]
  pest or weed control at 125 g/ha: 80%
[7]; Setaria faberi, pre-emergence, 240 h, 31 g ai/ha, 0 to 100 scale (0 no effect, 100 complete control), read-out: Foxtail, Giant plant response rating
  pest or weed control at 31 g/ha: 90%
[7]; Setaria faberi, pre-emergence, 240 h, 0 to 100 scale, read-out: Plant response rating, Foxtail, Giant
  pest or weed control at 125 g/ha: 100%
[8]; Bassia scoparia, pre-emergence, 240 h, 31 g ai/ha, 0 to 100 scale (0 no effect, 100 complete control), read-out: Kochia plant response rating
  pest or weed control at 31 g/ha: 100%
[8]; Bassia scoparia, pre-emergence, 240 h, 125 g ai/ha, 0 to 100 scale, read-out: Plant response rating, Kochia
  pest or weed control at 125 g/ha: 100%
[9]; Amaranthus retroflexus, pre-emergence, 240 h, 31 g ai/ha, 0 to 100 scale (0 no effect, 100 complete control), read-out: Pigweed plant response rating
  pest or weed control at 31 g/ha: 100%
[9]; Amaranthus retroflexus, pre-emergence, 240 h, 0 to 100 scale, read-out: Plant response rating, Pigweed
  pest or weed control at 125 g/ha: 100%
[10]; Ambrosia artemisiifolia, pre-emergence, 240 h, 31 g ai/ha, 0 to 100 scale (0 no effect, 100 complete control), read-out: Ragweed plant response rating
  pest or weed control at 31 g/ha: 0%
[10]; Ambrosia artemisiifolia, pre-emergence, 240 h, 125 g ai/ha, 0 to 100 scale, read-out: Plant response rating, Ragweed
  pest or weed control at 125 g/ha: 20%
[11]; Lolium multiflorum, post-emergence, 240 h, 31 g ai/ha, read-out: Plant response rating, Ryegrass, Italian
  pest or weed control at 31 g/ha: 20%
[11]; Lolium multiflorum, post-emergence, 240 h, 125 g ai/ha, read-out: Plant response rating, Ryegrass, Italian
  pest or weed control at 125 g/ha: 50%
[12]; Echinochloa crus-galli, post-emergence, 240 h, 31 g ai/ha, read-out: Plant response rating, Barnyardgrass
  pest or weed control at 31 g/ha: 20%
[12]; [22]
  pest or weed control at 125 g/ha: 90%
[13]; Alopecurus myosuroides, post-emergence, 240 h, 31 g ai/ha, read-out: Plant response rating, Blackgrass
  pest or weed control at 31 g/ha: 40%
[13]; Alopecurus myosuroides, post-emergence, 240 h, 125 g ai/ha, read-out: Plant response rating, Blackgrass
  pest or weed control at 125 g/ha: 90%
[14]; Zea mays, post-emergence, 240 h, 31 g ai/ha
  Corn plant response rating (crop injury, 0 = no effect, 100 = complete kill) at 31 g/ha: 20%
[14]; [23]
  Corn plant response rating (crop injury, 0 = no effect, 100 = complete kill) at 125 g/ha: 80%
[15]; Galium, post-emergence, 240 h, 31 g ai/ha, read-out: Plant response rating, Galium
  pest or weed control at 31 g/ha: 50%
[15]; Galium, post-emergence, 240 h, 125 g ai/ha, read-out: Plant response rating, Galium
  pest or weed control at 125 g/ha: 90%
[16]; Setaria faberi, post-emergence, 240 h, 31 g ai/ha, read-out: Plant response rating, Foxtail, Giant
  pest or weed control at 31 g/ha: 10%
[16]; [24]
  pest or weed control at 125 g/ha: 90%
[17]; Bassia scoparia, post-emergence, 240 h, 31 g ai/ha, read-out: Plant response rating, Kochia
  pest or weed control at 31 g/ha: 70%
[17]; Bassia scoparia, post-emergence, 240 h, 125 g ai/ha, read-out: Plant response rating, Kochia
  pest or weed control at 125 g/ha: 100%
[18]; Amaranthus retroflexus, post-emergence, 240 h, 31 g ai/ha, read-out: Plant response rating, Pigweed
  pest or weed control at 31 g/ha: 70%
[18]; [25]
  pest or weed control at 125 g/ha: 100%
[19]; Ambrosia artemisiifolia, post-emergence, 240 h, 31 g ai/ha, read-out: Plant response rating, Ragweed
  pest or weed control at 31 g/ha: 20%
[19]; Ambrosia artemisiifolia, post-emergence, 240 h, 125 g ai/ha, read-out: Plant response rating, Ragweed
  pest or weed control at 125 g/ha: 40%
[20]; Triticum aestivum, post-emergence, 240 h, 31 g ai/ha, read-out: Plant response rating, Wheat
  plant injury at 31 g/ha: 20%
[20]; [26]
  plant injury at 125 g/ha: 40%

## Clc1cnc(Oc2cccc(Br)c2Oc2ncc(Cl)cn2)nc1 [Compound 19, 2,2′-[[3-bromo-1,2-phenylene]bis(oxy)]bis[5-chloropyrimidine]]
[1]
  pest or weed control at 250 g/ha: 15%
[2]
  pest or weed control at 250 g/ha: 95%
[3]
  plant injury at 250 g/ha: 25%
[4]
  pest or weed control at 250 g/ha: 85%
[6]; [21]
  pest or weed control at 125 g/ha: 80%
[6]; Echinochloa crus-galli, pre-emergence, 240 h, 500 g ai/ha, 0 to 100 scale, read-out: Plant response rating, Barnyardgrass
  pest or weed control at 500 g/ha: 90%
[7]; Setaria faberi, pre-emergence, 240 h, 0 to 100 scale (0 no effect, 100 complete control), read-out: Foxtail, Giant plant response rating
  pest or weed control at 125 g/ha: 100%
[7]; Setaria faberi, pre-emergence, 240 h, 500 g ai/ha, 0 to 100 scale, read-out: Plant response rating, Foxtail, Giant
  pest or weed control at 500 g/ha: 100%
[9]; Amaranthus retroflexus, pre-emergence, 240 h, 0 to 100 scale (0 no effect, 100 complete control), read-out: Pigweed plant response rating
  pest or weed control at 125 g/ha: 100%
[9]; Amaranthus retroflexus, pre-emergence, 240 h, 500 g ai/ha, 0 to 100 scale, read-out: Plant response rating, Pigweed
  pest or weed control at 500 g/ha: 100%
[12]; [22]
  pest or weed control at 125 g/ha: 70%
[12]; Echinochloa crus-galli, post-emergence, 240 h, 500 g ai/ha, read-out: Plant response rating, Barnyardgrass
  pest or weed control at 500 g/ha: 100%
[14]; [23]
  Corn plant response rating (crop injury, 0 = no effect, 100 = complete kill) at 125 g/ha: 50%
[14]; Zea mays, post-emergence, 240 h, 500 g ai/ha
  Corn plant response rating (crop injury, 0 = no effect, 100 = complete kill) at 500 g/ha: 60%
[16]; [24]
  pest or weed control at 125 g/ha: 80%
[16]; Setaria faberi, post-emergence, 240 h, 500 g ai/ha, read-out: Plant response rating, Foxtail, Giant
  pest or weed control at 500 g/ha: 90%
[18]; [25]
  pest or weed control at 125 g/ha: 100%
[18]; Amaranthus retroflexus, post-emergence, 240 h, 500 g ai/ha, read-out: Plant response rating, Pigweed
  pest or weed control at 500 g/ha: 100%
[20]; [26]
  plant injury at 125 g/ha: 50%
[20]; Triticum aestivum, post-emergence, 240 h, 500 g ai/ha, read-out: Plant response rating, Wheat
  plant injury at 500 g/ha: 60%
